Laboratory results from US7993931B1, “Oxygen-18 labeled organic acids and use in diagnosing metabolic disorders” (Quest Diagnostics Investments Incorporated, priority 2003, dated 2011).

Test: Stability of oxygen-18 labeled organic acids in the sample preparation procedure (L/L extraction, MTBSTFA derivatization, GC/MS)
Details: for stability of the labeled acid (in words): prior to L/L extraction, during an 80 minute and during a 120 minute L/L extraction
[1] = Before L/L extraction, in diluted normal human urine, pH 1, ethyl-acetate extraction, GC/MS [M-57]+

Row | Compound | Unlabeled (Before L/L extraction) [%] | Unlabeled (L/L 80 min. extraction) [%] | Unlabeled (L/L 120 min. extraction) [%] | stability of the labeled acid (in words) | Single labeled (Before L/L extraction) [%] | Double labeled [1] [%] | Double labeled (L/L 80 min. extraction) [%] | Single labeled (L/L 80 min. extraction) [%] | Double labeled (L/L 120 min. extraction) [%] | Single labeled (L/L 120 min. extraction) [%] | further results
1 | CC(=O)CC(=O)CCC(=O)O [Oxygen-18-Containing Succinyacetone, Succinyacetone] | 0 | 0 | 0.2 | exhibited stability |  |  |  |  |  |  | Oxygen 18 × 1 (Before L/L extraction): 0.2%; Oxygen 18 × 2 (Before L/L extraction): 2.8%; Oxygen 18 × 3 (Before L/L extraction): 25%; Oxygen 18 × 4 (Before L/L extraction): 72%; Oxygen 18 × 1 (L/L 80 min. extraction): 0.2%; Oxygen 18 × 2 (L/L 80 min. extraction): 2.8%; Oxygen 18 × 3 (L/L 80 min. extraction): 27%; Oxygen 18 × 4 (L/L 80 min. extraction): 70%; Oxygen 18 × 1 (L/L 120 min. extraction): 0.8%; Oxygen 18 × 2 (L/L 120 min. extraction): 3%; Oxygen 18 × 3 (L/L 120 min. extraction): 29%; Oxygen 18 × 4 (L/L 120 min. extraction): 67%
2 | CC=CC(=O)NCC(=O)O [Oxygen-18-Containing Crotonyl Glycine, Crotonyl glycine] | 0.1 | 0.2 | 1.6 | exhibited stability | 15.5 | 84 | 85 | 14.8 | 81 | 17.4 | 
3 | CCCC(=O)NCC(=O)O [Oxygen-18-Containing Butyryl Glycine, Butyryl glycine] | 0.5 | 0.2 | 0.8 | exhibited stability | 14.5 | 85 | 85 | 14.8 | 83 | 16.2 | 
4 | O=C(O)C(O)CO (stereo not drawn) [Oxygen-18-Containing Glyceric Acid, Glyceric acid] | 0 | 0.5 | 2.4 | exhibited stability | 13 | 87 | 84 | 15.5 | 81 | 17.6 | 
5 | O=C(O)Cc1ccc(O)cc1 [4-hydroxy phenyl acetic acid] | 0.8 | 3.2 | 2.3 | exhibited stability | 15.5 | 83.7 | 81 | 15.8 | 78 | 19.7 | 
6 | CC(O)C(C)C(=O)O (stereo not drawn) [3-hydroxy-2-methyl butyric acid] | 0.1 | 0.1 | 0.3 | exhibited stability | 14.9 | 85 | 85 | 14.9 | 85 | 14.7 | 
7 | CCC(O)C(=O)O (stereo not drawn) [oxygen-18-containing 2-OH Butyric Acid, 2-hydroxy-butyric acid] | 1 | 0.11 | 0.3 | exhibited stability | 15 | 84 | 83 | 17.4 | 80 | 19.7 | 
8 | CC(C)CC(O)C(=O)O (stereo not drawn) [2-hydroxy isocaproic acid] | 0.4 | 0.5 | 0.4 | exhibited stability | 15.6 | 84 | 83 | 16.5 | 79 | 20.6 | 
9 | O=C(O)CCCC(=O)O [Oxygen-18-Containing Glutaric Acid, Glutaric acid] | 0.1 | 0.2 | 0.2 | exhibited stability |  |  |  |  |  |  | Oxygen 18 × 1 (Before L/L extraction): 0.4%; Oxygen 18 × 2 (Before L/L extraction): 3.5%; Oxygen 18 × 3 (Before L/L extraction): 27%; Oxygen 18 × 4 (Before L/L extraction): 69%; Oxygen 18 × 1 (L/L 80 min. extraction): 0.8%; Oxygen 18 × 2 (L/L 80 min. extraction): 3%; Oxygen 18 × 3 (L/L 80 min. extraction): 28%; Oxygen 18 × 4 (L/L 80 min. extraction): 68%; Oxygen 18 × 1 (L/L 120 min. extraction): 0.8%; Oxygen 18 × 2 (L/L 120 min. extraction): 4%; Oxygen 18 × 3 (L/L 120 min. extraction): 30%; Oxygen 18 × 4 (L/L 120 min. extraction): 65%
